Patent publication EP0049060A1, “Imidazoles” (BEECHAM GROUP PLC, priority 1980, dated 1982)
Where a name gives a salt, the structure may show the parent alone. Read-outs that look alike come from different tables or passages of the source.

Legend:
[1] = system: mice; test: Potentiation of the Effects of 5-Hydroxytryptophan (anti-convulsant activity of 5 HTP, electroshock threshold); type: in vivo; conditions: for ED100: Mus musculus, po, dose increasing the elevation of electroshock threshold due to 5HTP by 100%
Protocol: (§1) The ability of the compounds of this invention to potentiate catecholaminesand 5-hydroxytryptamine was examined using the test methods (1) and (2) below, respectively. These tests are indicative of anti-depressant activity.
(2) Potentiation of the Effects of 5-Hydroxytryptophan
5 HTP Potentiation was measured in mice using the potentiation of the anti-convulsant activity of 5 HTP originally-described by Buus Lassen J., (1975), Psychopharmacol, 42, 21-6. Mice (10/group) were pretreated with the compounds under investigation and 30' later received a sub-threshold level dose of L-5 HTP (100 mg/kg ip). 30 minutes later they were subjected to electroshock and the shock level (in V) required to cause tonic extensor spasm in 50% of the mice determined for all groups.
The dose of compounds required to increase the elevation of electroshock threshold due to 5HTP by 100% is determined graphically.

[2] = system: mice; test: Prevention of Reserpine-induced Hypothermia; type: in vivo; conditions: Mus musculus, p.o., oral doses 24, 18 and 2 hours before 1 mg/kg i.v. reserpine, active = significant at p<0.05, read-out: Res Prev (lowest active dose)
Excerpt: as §1
(1) Prevention of Reserpine-induced Hypothermia
The method of Spencer in "Anti-Depressant Drugs: Proceedings of the 1st International Symposium", p 184-204. Ed. Garattini, S and Dukes MNG, Excerpta Med Foundation, Amsterdam, 1967, was used. Groups of 5 mice were given oral doses of the test compound 24 hours, 18 hours and 2 hours before an intravenous injection of 1 mg/kg reserpine base. The oral temperatures of the mice were taken immediately before the administration of the reserpine and 6 hours afterwards. Mean temperatures of groups given test compounds are compared with the mean temperatures of the reserpinised controls using the Students t test. Compounds causing significant difference at the level p<0.05 are considered active at that dose.

[3] = target: T1, A-form of monoamine oxidase (Homo sapiens, UniProt P21397); test: Monoamine oxidase A inhibition (other initial tests); type: biochemical
T1 sequence (P21397 1-527): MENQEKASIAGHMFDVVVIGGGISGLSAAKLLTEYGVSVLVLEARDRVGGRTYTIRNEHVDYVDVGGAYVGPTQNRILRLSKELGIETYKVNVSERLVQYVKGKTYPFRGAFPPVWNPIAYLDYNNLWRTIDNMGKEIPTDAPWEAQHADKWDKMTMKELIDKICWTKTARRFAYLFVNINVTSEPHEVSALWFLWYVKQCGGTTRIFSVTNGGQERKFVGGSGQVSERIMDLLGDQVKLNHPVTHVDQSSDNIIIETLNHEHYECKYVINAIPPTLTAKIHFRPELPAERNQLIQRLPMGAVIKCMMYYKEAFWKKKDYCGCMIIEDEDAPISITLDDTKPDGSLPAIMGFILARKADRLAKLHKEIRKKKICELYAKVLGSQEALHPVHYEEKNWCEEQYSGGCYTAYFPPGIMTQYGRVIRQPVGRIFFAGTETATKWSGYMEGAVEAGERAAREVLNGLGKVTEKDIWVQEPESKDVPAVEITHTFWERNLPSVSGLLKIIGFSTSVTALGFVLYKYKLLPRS

[4] = Acute toxicity (LD50) in mice; conditions: mouse, in vivo, po
[5] = system: mice; test: Acute toxicity (LD50) in mice; conditions: initial tests
[6] = read-out: 5-HTP Potentiation, ED100

| Molecule | minimal effective dose [2] [mg/kg] | ED100 [1, 6] [mg/kg] | other results |
| --- | --- | --- | --- |
| 1-(2',4'-Dichlorophenoxyethyl)-4(5)-methylimidazole maleate [Example 22] | – | – | 5-HTP Potentiation, % Change of control at x mg/kg, p.o. ([1]; at 30 mg/kg p.o.): 138% at 30 |
| Cc1nccn1CCOc1ccc(F)cc1 [Example 4] | 100 | – | ED100 ([1]; read-out: 5 HTP pot ED100): 1 mg/kg |
| Cc1nccn1CCOc1ccc(Cl)cc1 [Example 1, 1-(4'-Chlorophenoxyethyl)-2-methyl imidazole] | 10 | – | ED100 ([1]; read-out: 5 HTP pot ED100): 5 mg/kg |
| Cc1nccn1CCCOc1ccc(F)cc1 [Example 9] | – | – | ED100 ([1]; read-out: 5 HTP pot ED100): 10 mg/kg |
| Cc1nccn1CCOc1c(Cl)cccc1Cl [Example 14, 1-(2',6'-Dichlorophenoxyethyl)-2-methylimidazole maleate] | – | 9 | – |
| Cc1nccn1CCOc1cccc(Cl)c1 [Example 6] | 100 | – | ED100 ([1]; read-out: 5 HTP pot ED100): 7 mg/kg |
| Cc1nccn1CCOc1cccc(Cl)c1Cl [Example 12, 1-(2',3'-Dichlorophenoxyethyl)-2-methylimidazole maleate] | – | 28 | – |
| COc1ccc(OCCn2ccnc2C)cc1 [Example 5] | 10 | – | – |
| Cc1nccn1CCOc1ccc(Br)cc1Cl [Example 16, l-(4'-Bromo-2'-chlorophenoxyethyl)-2-methylimidazole maleate] | – | – | 5-HTP Potentiation, % Change of control at x mg/kg, p.o. ([1]; at 30 mg/kg p.o.): 96% at 30 |
| Cc1nccn1CCOc1ccccc1Cl [Example 7] | 100 | – | – |
| CCc1nccn1CCOc1ccc(Cl)cc1Cl [Example 23, 1-(2',4'-Dichlorophenoxyethyl)-2-ethylimidazole maleate] | – | 53 | – |
| Cc1nccn1CCOc1ccc(Cl)cc1Cl [formula (II)"] | – | – | inhibitor of the A-form of monoamine oxidase [3]: selective and reversible inhibitor; LD50 [4]: > 900 mg/kg; level of toxicity [5]: low level of toxicity |
| Cc1nccn1CCOc1ccc(Cl)cc1Cl [Example 8, 1-(2',4'-Dichlorophenoxyethyl)-2-methylimidazole] | 10 | – | ED100 ([1]; read-out: 5 HTP pot ED100): 20 mg/kg |
| Cc1nccn1CCOc1ccc(Br)cc1Br.O=C(O)/C=C\C(=O)O [Example 15, 1-(2',4'-Dibromophenoxyethyl)-2-methylimidazole maleate] | – | 34 | – |
| Cc1nccn1CCOc1ccc(Cl)c(Cl)c1 [Example 10, 1-(3',4'-Dichlorophenoxyethyl)-2-methylimidazole] | – | 12 | – |
| Cc1nccn1CCCOc1ccc(Cl)cc1 [Example 2, 1-(4'-Chlorophenoxypropyl)-2-methyl imidazole] | 3 | – | ED100 ([1]; read-out: 5 HTP pot ED100): 3 mg/kg |
| Cc1nccn1CCOc1cccc(C(F)(F)F)c1 [Example 21, 1-(3'-Trifluoromethylphenoxyethyl)-2-methylimidazole maleate] | – | 26 | – |
| Cc1nccn1CCOc1ccccc1 [Example 20, 1-(2'-Phenoxyethyl)-2-methylimidazole] | – | 10 | – |
| Cc1cc(Cl)ccc1OCCn1ccnc1C [Example 18, 1-(4'-Chloro-2'-methylphenoxyethyl)-2-methylimidazole maleate] | – | 10 | – |
| Cc1nccn1CCCCOc1ccc(Cl)cc1 [Example 3, 1-(4'-Chlorophenoxybutyl)-2-methyl imidazole] | 100 | – | ED100 ([1]; read-out: 5 HTP pot ED100): 16 mg/kg |
| Cc1cc(OCCn2ccnc2C)cc(C)c1Cl [Example 19, 1-(4'-Chloro-3',5'-dimethylphenoxyethyl)-2-methylimidazole maleate] | – | – | 5-HTP Potentiation, % Change of control at x mg/kg, p.o. ([1]; at 100 mg/kg p.o.): 77% at 100 |
| Cc1nccn1CCOc1cc(Cl)ccc1Cl [Example 13, l-(2',5'-Dichlorophenoxyethyl)-2-methylimidazole maleate] | – | 19 | – |
| Cc1nccn1CCOc1cc(Cl)c(Cl)c(Cl)c1 [Example 17, 1-(3',4',5'-Trichlorophenoxyethyl)-2-methylimidazole maleate] | – | 70 | – |
| Cc1nccn1CCOc1cc(Cl)cc(Cl)c1.O=C(O)/C=C\C(=O)O [Example 11, 1-(3',5'Dichlorophenoxyethyl)-2-methylimidazole maleate] | – | 18 | – |
